In patent publication US11708283B2, “Metal-chelating compositions and their use in methods of removing or inhibiting barium scale” (CORNELL UNIVERSITY, priority 2018, dated 2023):

Legend:
[1] = Thermodynamic stability constants of Sr^2+ complexes by pH-potentiometry; type: binding; conditions: I = 0.1M KCl; for pSr (−log [M^2+]free): [M^2+] = 10^−6M, [L] = 10^−5M, pH 7.4; for log K′Sr (conditional stability constant): pH 7.4, 25° C., calculated from protonation and stability constants
Experimental: Potentiometric measurements were carried out using a titrator equipped with a combination electrode and an exchange unit with an automatic burette (10 mL). The titration vessel was fitted with a removable glass cell (˜70 mL) and was thermostated at 25° C. using a circulating water bath. CO2 was excluded from the vessel prior to and during the titrations using a small positive pressure of Ar that was passed through a solution of 30 wt % KOH. Carbonate-free KOH (˜0.1 M) was prepared by dissolving KOH pellets (semiconductor grade, 99.99% trace metals basis) in freshly boiled water (≥18 MΩ-cm) and was standardized by potentiometric titration against potassium hydrogen phthalate. Hydrochloric acid (0.1 M) was standardized against freshly prepared KOH. Titration solutions were maintained at a constant ionic strength of 0.1 M using KCl (≥99.5%) and were equilibrated for 15 minutes prior to the addition of titrant. Before every titration, the electrode was calibrated in terms of hydrogen ion concentration by titrating a solution of standardized HCl (5 mM) containing supporting electrolyte (95 mM) with standardized KOH (2 mL). Data within the pH ranges of 2.5-3.2 and 10.8-11.2 were analyzed using software to obtain the standard electrode potential (E0) and slope factor. Owing to the sharp rise in pH at the titration endpoint (pH 3.2-10.8), data obtained in this region are subject to significant error and were therefore excluded from the calibration analysis. A pKw value of 13.78 was taken from the literature (Baes, C. F.; Mesmer, R. E. The Hydrolysis of Cations; Wiley: New York, 1976).
ICP standards of calcium, strontium, and barium in dilute HNO3 were employed in the titrations. The exact amount of HNO3 was determined by potentiometric titration of each metal solution (1 mL), diluted to a known volume with H2O, with standardized KOH to pH ˜7; under these conditions, no precipitation of metal hydroxide species was observed. The data were analyzed using a Gran plot (Gran, G. Analyst 1952, 77, 661-671). Stability constants were measured for the alkaline earth complexes of macropa^2− and macropaquin^2− by adding standardized KOH to a solution (20 mL) containing ligand (0.02 mmol), metal (0.02 mmol), 1 M KCl (1.9 mmol), and a portion of 0.1 M HCl sufficient to bring the total acid content (HCl+HNO3) to 0.1 mmol. The titration method employed either a 0.1 mV/min or 0.2 mV/min drift limit with a maximum wait time of 300 seconds between addition of base and measurement. […] Data points (˜30-90) obtained over the pH ranges of 2.5-10.5 (Ba-macropa), 2.8-10.5 (Sr-macropa), 4.0-10.5 (Ca-macropa), 2.7-11.3 (Ba-macropaquin), and 4.0-11.3 (Sr- and Ca-macropaquin) were included in the refinements. These pH ranges reflect the portion of the titration curves in which metal binding is occurring. Using the protonation constants measured for each ligand, the stability constants (Equations 2-4, below) were calculated from the average of at least 3 independent titrations using appropriate software. Proton concentration was admitted as a refineable parameter. Ligand (L) concentration was taken as the averaged value obtained from the refinements of ligand-only titrations. The errors given for the stability constants correspond to one standard deviation.
The alkaline earth stability constants for macroquin-SO3^4− were determined using a system in which each ligand titration was paired with a ligand-metal titration. These pairwise titrations permitted the ligand concentration for the metal-ligand titrations to be known with reasonable certainty from the refinement of the ligand-only titrations. Immediately following a titration of the free ligand with HCl, metal ion (0.013 mmol) was added and the solution was equilibrated under Ar for 15 minutes before the addition of standardized KOH. The same titration method was employed as described above for macropa^2− and macropaquin^2−. […]

[2] = Dissolution of barium sulfate suspension (GFAAS); conditions: for BaSO4 dissolved: 30 minutes
Experimental: First, a suspension of BaSO4 in pH 8 NaHCO3 was formed by combining Ba(NO3)2 (4.53 mM) with excess Na2SO4 (13.48 mM), simulating the mixing of incompatible waters that produces BaSO4 scale in petroleum operations. The resulting BaSO4 suspension was treated with ligand (5 mM), and the amount of dissolved Ba^2+ was measured by GFAAS.
More specifically. BaSO4 dissolution experiments at pH 8 were performed in NaHCO3 (1 M, pH=7.9-8.0); dissolution studies at pH 11 were performed in Na2CO3 (1 M, pH adjusted to 10.98 using concentrated HCl). […] The concentration of the DOTA stock solution was calculated from the mass of the ligand used (255.5 mg). A solution of Na2SO4 (293 mM) was prepared in water. The barium source for this experiment was an ICP standard solution of Ba(NO3)2 (72.99 mM; 10023 μg/mL) in 2% v/v HNO3.
Dissolution studies were carried out in 2 mL borosilicate vials equipped with identical magnetic stir bars (6.4×3 mm). Each BaSO4 suspension was prepared independently by mixing Ba(NO3)2 and Na2SO4 in 1 M NaHCO3 or Na2CO3 to give final concentrations of 4.53 mM (621,426 μg/L) and 13.48 mM, respectively. Dissolution was initiated by the addition of an aliquot of ligand (5 mM final concentration, 1.1 equiv with respect to Ba^2+) to each suspension. Controls (pH 8) received an aliquot of water instead of ligand. The suspensions were stirred at room temperature (22±1° C.) at a rate of 550 RPM. At time points of 5 min (pH 11 only), 10 min, 20 min, and 30 min, the suspensions were filtered through nylon syringe filters (either 0.2 μm or 0.22 μm), and the filtrates were analyzed as described below. The dissolution experiments were performed in triplicate at every time point for each ligand except DOTA, for which 6 replicates were run for 20 min and 30 min time points at pH 8.
The filtered samples were diluted 6565-fold (65×101) with water and analyzed for barium content by GFAAS using the furnace method and instrument parameters discussed earlier above. Standards containing both ligand and barium at the same concentrations employed in the dissolution studies were prepared in either NaHCO3 (pH 8) or Na2CO3 (pH 11); water was substituted for Na2SO4. […] Water was used as the diluent. Following calibration, each sample was analyzed in triplicate and averaged. After the analysis of every three samples, a single measurement of water was made to ensure that there was no carryover of barium. After every three (pH 11) or six (pH 8) samples were analyzed, an independently-prepared Ba-L standard was analyzed a maximum of two times as a quality control check. If the measurement was not within ±10% of the known concentration of barium, the instrument was re-calibrated and the data between the failed calibration check and the previous calibration check was excluded. Data from each time point were averaged and the results are reported as the percentage of barium dissolved. The errors given correspond to 1 standard deviation.

| Compound | pSr (−log [M^2+]free) ([1]; 25° C.) | log K′Sr (conditional stability constant) [1] | BaSO4 dissolved ([2]; pH 8, RT, 5 mM ligand) | BaSO4 dissolution ([2]; pH 11, 30 min) [%] | log KSrHL ([1]; pH-potentiometry, 25° C.) | log KSrL ([1]; pH-potentiometry, 25° C.) | BaSO4 solubilized ([2]; pH 8, RT, 5 mM ligand, 10 minutes) [%] | BaSO4 solubilized ([2]; pH 11, 5 min) [%] | log KSrH2L ([1]; pH-potentiometry, 25° C.) |
| --- | --- | --- | --- | --- | --- | --- | --- | --- | --- |
| O=C(O)CN1CCN(CC(=O)O)CCN(CC(=O)O)CCN(CC(=O)O)CC1 [DOTA, reference compound] | 9.30 | 8.35 | 40% | 75 |  |  |  |  |  |
| O=C(O)c1cccc(CN2CCOCCOCCN(Cc3cccc(C(=O)O)n3)CCOCCOCC2)n1 [macropa, 6,6-((1,4,10,13-tetraoxa-7,16-diazacyclooctadecane-7,16-diyl)bis(methylene))dipicolinic acid] | 10.02 | 9.07 | complete dissolution |  | 3.35(8) | 9.442(4) | 78 | > 95 |  |
| O=C(O)c1cccc(CN2CCOCCOCCN(Cc3ccc4cccc(O)c4n3)CCOCCOCC2)n1 [macropaquin, 6-((16-((8-hydroxyquinolin-2-yl)methyl)-1,4,10,13-tetraoxa-7,16-diazacyclooctadecan-7-yl)methyl)picolinic acid] | 8.50 | 7.54 | 95% |  | 8.92(2) | 9.19(5) |  |  |  |
| O=S(=O)(O)c1ccc(O)c2nc(CN3CCOCCOCCN(Cc4ccc5c(S(=O)(=O)O)ccc(O)c5n4)CCOCCOCC3)ccc12 [macroquin-SO3, 2,2′-((1,4,10,13-tetraoxa-7,16-diazacyclooctadecane-7,16-diyl)bis(methylene))bis(8-hydroxyquinoline-5-sulfonic acid)] | 6.70 | 5.64 |  |  | 8.34(4) | 8.62(2) |  |  | 6.920(3) |
